Results reported in BindingDB's records for doi:10.3109/14756366.2010.550890 (Jamia Hamdard University, 2011).

Key:
[1] = target: T1, Prostaglandin G/H synthase 1 (Ovis aries, UniProt P05979); experiment: COX Inhibition Assay; conditions: pH 8; 37 °C
T1 sequence (P05979 whole entry): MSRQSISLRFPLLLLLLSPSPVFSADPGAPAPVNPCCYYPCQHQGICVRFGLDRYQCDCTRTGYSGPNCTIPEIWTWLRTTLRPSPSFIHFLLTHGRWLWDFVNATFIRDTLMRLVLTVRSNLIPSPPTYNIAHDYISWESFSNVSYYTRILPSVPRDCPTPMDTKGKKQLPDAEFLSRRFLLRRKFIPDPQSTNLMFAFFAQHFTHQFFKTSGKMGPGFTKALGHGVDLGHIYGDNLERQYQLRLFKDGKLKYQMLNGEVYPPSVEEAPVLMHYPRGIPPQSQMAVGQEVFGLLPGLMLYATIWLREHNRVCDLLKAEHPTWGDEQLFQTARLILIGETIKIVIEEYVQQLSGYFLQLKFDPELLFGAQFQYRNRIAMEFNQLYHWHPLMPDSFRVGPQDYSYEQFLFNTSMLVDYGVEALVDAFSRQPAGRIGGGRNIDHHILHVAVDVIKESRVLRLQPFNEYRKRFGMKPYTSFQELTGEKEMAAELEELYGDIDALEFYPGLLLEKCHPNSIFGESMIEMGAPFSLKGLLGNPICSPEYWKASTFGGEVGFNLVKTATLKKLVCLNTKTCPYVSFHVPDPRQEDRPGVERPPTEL
Experimental: (§1) Stock solutions of test compounds were dissolved in a minimum volume of dimethyl sulphoxide (DMSO) toobtain 0.001, 0.01, 0.1, 1, 10, 100, and 500 μM in a final volume of 1 mL. In brief, haematin reconstituted purified COX-1 and COX-2 enzymes in a reaction buffer containing Tris-hydrochloric acid (HCl) (0.1 M, pH 8.0), 5 mM ethylenediaminetetraacetic acid (EDTA), and 2 mM phenol were pre-incubated at room temperature for 1 h with test compounds followed by the addition of AA (100 μM)for 2 min at 37°C. Reactions were terminated by adding 50 μL of 1 M HCl followed by the addition of 100 μL of stannous chloride.

[2] = target: T2, Prostaglandin G/H synthase 2 (Ovis aries, UniProt P79208); experiment: COX Inhibition Assay; conditions: pH 8; 37 °C
T2 sequence (P79208 whole entry): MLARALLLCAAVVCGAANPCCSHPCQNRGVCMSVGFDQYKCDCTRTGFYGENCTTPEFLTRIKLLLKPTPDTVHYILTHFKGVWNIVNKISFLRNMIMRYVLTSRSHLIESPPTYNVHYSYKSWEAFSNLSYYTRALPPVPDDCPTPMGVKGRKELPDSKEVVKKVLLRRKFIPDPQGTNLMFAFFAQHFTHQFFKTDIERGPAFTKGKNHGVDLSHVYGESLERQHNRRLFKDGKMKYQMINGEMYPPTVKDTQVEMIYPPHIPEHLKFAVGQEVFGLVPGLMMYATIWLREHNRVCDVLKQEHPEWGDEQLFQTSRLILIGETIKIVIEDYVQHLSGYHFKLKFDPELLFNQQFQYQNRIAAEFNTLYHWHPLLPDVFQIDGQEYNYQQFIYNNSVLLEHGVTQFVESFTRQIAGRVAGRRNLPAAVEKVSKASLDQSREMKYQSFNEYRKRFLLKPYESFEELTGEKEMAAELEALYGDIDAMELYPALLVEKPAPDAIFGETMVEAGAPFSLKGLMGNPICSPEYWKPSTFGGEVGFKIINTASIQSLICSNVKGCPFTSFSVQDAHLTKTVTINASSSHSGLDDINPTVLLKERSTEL
Experimental: as §1

Row | IC50 [1] [µM] | IC50 [2] [µM] | Structure (SMILES)
1 | 41.6 | 0.4 | O=c1oc2ccccc2cc1-c1nnc(-c2ccc(Cl)cc2Cl)o1 [3-[5-(2,4-Dichloro-phenyl)-[1,3,4]oxadiazol-2-yl]-chromen-2-one (4e)]
2 | > 100 | > 100 | O=c1oc2ccccc2cc1-c1nnc(Nc2ccc(Cl)cc2)o1 [3-[5-(4-Chloro-phenylamino)-[1,3,4]oxadiazol-2-yl]-chromen-2-one (6b)]
3 | > 100 | 36.6 | Cc1ccccc1Nc1nnc(-c2cc3ccccc3oc2=O)o1 [3-(5-o-Tolylamino-[1,3,4]oxadiazol-2-yl)-chromen-2-one (6e)]
4 | > 100 | 1.18 | Cc1ccc(-c2nnc(-c3cc4ccccc4oc3=O)o2)cc1 [3-(5-p-Tolyl-[1,3,4]oxadiazol-2-yl)-chromen-2-one (4c)]
5 | > 100 | > 100 | O=C(Nc1nnc(-c2cc3ccccc3oc2=O)o1)c1ccc(Cl)cc1 [4-Chloro-N-[5-(2-oxo-2H-chromen-3-yl)-[1,3,4]oxadiazol-2-yl]-benzamide (8b)]
6 | 35 | 1.2 | O=c1oc2ccccc2cc1-c1nnc(-c2ccc(Cl)cc2)o1 [3-[5-(4-Chloro-phenyl)-[1,3,4]oxadiazol-2-yl]-chromen-2-one (4b)]
7 | < 100 | 8.7 | O=c1oc2ccccc2cc1-c1nnc(-c2ccccc2)o1 [3-(5-Phenyl-[1,3,4]oxadiazol-2-yl)-chromen-2-one (4a)]
